According to US20110044991A1, “METHODS AND COMPOSITIONS FOR TREATING LYMPHOMA AND MYELOMA” (IRM LLC, priority 2006, published 2011):
Like-named read-outs stand apart in the source and are kept apart here.

Key:
[1] = tested on: Eμ-Myc lymphoma cells; assay: Luciferase assay and light microscopy of luciferased lymphoma cells on stromal layer; assay type: cell-based, mouse; details: for Response rate to cyclopamine treatment (responsive/tested cultures) / Response rate to cyclopamine treatment: Myc-lymphomas; for Response rate to cyclopamine treatment: >80% growth inhibition at 5 μM
Description: (§1) For Shh pathway inhibition on stroma, 6200 stroma cells were seeded per 96-well. After 24 hours 20,000 luciferased lymphoma cells were seeded on the stroma cells and 2 hours later compound or DMSO was added. Luciferase assay was performed with Bright-glow reagent as described. To generate cells overexpressing Hh pathway members, lymphoma cells were infected with Smo, Smo 535, Smo 562, Gli1 and Fused-pMSCV IRES GFP constructs and then sorted for GFP positive cells.
(§2) In order to investigate whether the Hh signalling pathway does indeed contribute to the survival and proliferation of lymphoma cells growing on an intact stromal layer, lymphoma cells were luciferased using a retrovirus expressing a puromycin/Luc fusion cassette. 2×10E4 lymphoma cells constitutively expressing luciferase were added to each 96-well containing a stromal layer (not expressing luciferase) isolated from Cdkn2a^−/− mice. A total of 34 individual Eμ-Myc-lymphomas and 8 Cdkn2a-lymphomas were tested. A luciferase assay was performed as a readout for cell viability and proliferation and results were also documented by light microscopy.

[2] = tested on: Cdkn2a−/− lymphoma cells; assay: Luciferase assay of luciferased lymphoma cells on stromal layer; assay type: cell-based, mouse; details: for Response rate to cyclopamine treatment (responsive/tested cultures) / Response rate to cyclopamine treatment: Ink4a/Arf-/- lymphomas; for Response rate to cyclopamine treatment: >80% growth inhibition at 5 μM
Description: as §1, §2

[3] = tested on: lymphoma cells; assay: Annexin V staining, flow cytometry; assay type: cell-based, mouse; details: 5 μM
[4] = tested on: Myc-Ly6 cells overexpressing Smo, Smo535, Smo562, Gli1 or Fused; assay: Luciferase assay with lymphoma cells overexpressing Hh pathway members on stromal layer; assay type: cell-based, mouse; details: for IC50: Mus musculus, 48 h
Description: as §1

[5] = tested on: Myc lymphoma cells (p53−/−, Cdkn2a−/−, Bcl2+, Bax−/−, Caspase3−/−); details: for apoptosis: 5 μM, 48 hours
Source text: Genetically altered mice and culture of primary cells: Eμ-Myc mice (Adams et al., Nature 318: 533-53824, 1985), Cdkna^−/− mice (Serrano et al., Cell. 85:27-3725, 1996), Bax^−/− mice (The Jackson Laboratory, Bar Harbor, Me.), Caspase3^−/− mice (The Jackson laboratory), p53^−/− mice (The Jackson Laboratory) and Bcl2 tg mice (The Jackson laboratory) were maintained and genotyped as described. Eμ-Myc mice and Cdkn2a−/− mice were monitored for signs of disease including development of visible lymphomas or weight loss from more than 15%. Mice with terminal disease were sacrificed, bone marrow, spleen and lymph nodes were extracted and lymphoma cells were propagated under Witlock/Witte culture conditions. For maintained growth cells were transferred on bone marrow stroma from Cdkn2a−/− mice after 2-3 weeks of culture. For generation of lymphomas with defined genetic background, bone marrow from p53−/− mice, Caspase3−/− mice, Bax−/− mice, Cdkn2a−/− mice and Bcl2 tg mice was extracted and pMSCV c-Myc IRES GFP was overexpressed. Propagation of transformed lymphocytes was performed under Witlick/Witte culture conditions and lymphomas were maintained on stroma from Cdkn2a−/− mice.
To better understand which specific pathways are involved in the regulation of growth and survival through Hh signalling in lymphoma cells, lymphoma cell cultures were generated in multiple different genetic backgrounds in order to modify either apoptotic or failsafe pathways. Bone marrow extracted from wt C57BL/6, Bcl2 transgenic, Bax^−/− Caspase-3^−/−, CDKN2a^−/− and p53^−/− mice was infected with pMSCV-Myc-GFP and transformed lymphocyte cultures were obtained using Whitlock/Witte culture conditions in the absence of IL-7. […] Similar to cultures established from primary lymphomas, lymphocytes transformed by retroviral transduction were transferred to bone marrow stroma of CDKN2a^−/− mice for longer term culture.

[6] = tested on: Eμ-Myc lymphoma cells; assay: Luciferased lymphoma cells injected into C57BL/6 mice, treatment from day 2; assay type: in vivo, mouse
Description: (§3) D: injection of 1 Mio luciferased lymphoma cells in C57B16 mice.
(§4) Mouse experiments: Black6 mice between 6 and 8 weeks of age were injected with 1 Mio luciferased lymphoma cells. […] Bioluminescence was measured with injection of […].
In order to verify the importance of the Hh pathway for lymphoma growth and expansion in mice, we injected 1e6 lymphoma cells expressing luciferase into syngeneic C57BL/6 mice. […] Luciferase levels were measured by bioluminescence imaging twice a week.

[7] = tested on: lymphoma cells (Ly9)
Description: as §3
Immunohistochemistry: Single colour DAB-immunoperoxidase staining was performed as described. Antibodies were obtained from Santa Cruz Biotechnologies (for Shh antibody, N-19), NeoMarkers (for Ki67 antibody) and Promega (for PARP antibody).
as §4
We next wished to determine the importance of Hh signalling in established lymphomas.

[8] = 50 mg/kg twice a day for 3 days, vs control group

CC1=C2C[C@H]3[C@@H](CC=C4C[C@@H](O)CC[C@@]43C)[C@@H]2CC[C@]12O[C@@H]1C[C@H](C)CN[C@H]1[C@H]2C [cyclopamine]
IC50 ([1]; Mus musculus, 48 h, read-out: IC50 (concentration needed for 50% of maximal inhibition)): 0.5 to 2 µM | clearance of lymphoma cells from the stromal layer ([1]; Myc-Ly4, 5 μM, within 48 h): complete clearance | Response rate to cyclopamine treatment (responsive/tested cultures) ([1]; B-cell lymphoma): 8/10 and (8/10) | Response rate to cyclopamine treatment (responsive/tested cultures) ([1]; mixed lymphomas): 1/2 | Response rate to cyclopamine treatment ([1]; mixed lymphomas): 50% | Response rate to cyclopamine treatment (responsive/tested cultures) ([1]; plasmacytoma): 6/9 | Response rate to cyclopamine treatment ([1]; plasmacytoma): 66% | Response rate to cyclopamine treatment (responsive/tested cultures) ([1]; plasmoblastoma): 8/10 and (8/10) | Response rate to cyclopamine treatment ([1]; plasmoblastoma): 80% | lymphomas sensitive to Hh pathway inhibition ([1]; all Eμ-Myc-lymphomas, sensitivity = greater than 80% growth inhibition at 5 μM): 74.1% | Response rate to cyclopamine treatment (responsive/tested cultures) ([2]; plasmacytoma): (2/4) | Response rate to cyclopamine treatment ([2]; plasmacytoma): 50% | Response rate to cyclopamine treatment (responsive/tested cultures) ([2]; plasmoblastoma): (2/4) | Response rate to cyclopamine treatment ([2]; plasmoblastoma): 50% | lymphomas sensitive to Hh pathway inhibition ([2]; all lymphomas from CDKN2a−/− mice, sensitivity = greater than 80% growth inhibition at 5 μM): 50% | apoptotic cells (annexin V) ([3]; after 48 hours): ~100% | apoptotic cells (annexin V) ([3]; within 12 hours): more than 50% | IC50 ([4]; cyclopamine sensitive lymphoma cell lines without overexpression): 1 µM | IC50 ([4]; overexpression of Fused): > 10 µM | IC50 ([4]; overexpression of Gli1): > 10 µM | IC50 ([4]; overexpression of Smo A562G): 4.5 µM | IC50 ([4]; overexpression of Smo W535L): 3.5 µM | IC50 ([4]; overexpression of Smo wt): 3 µM | apoptosis induction by cyclopamine ([4]; overexpression of Fused): nearly complete inhibition of apoptosis induction | response of Myc-Ly6 to cyclopamine treatment ([4]; overexpression of Gli1): partial resistance | cyclopamine induced apoptosis ([5]; Myc/Bax−/− cells): partial resistance | cyclopamine induced apoptosis ([5]; Myc/Caspase 3−/− cells): partial resistance | apoptosis ([5]; Myc/Cdkn2a−/− lymphoma cells): induced apoptosis | apoptosis ([5]; Myc/p53−/− lymphoma cells): induced apoptosis | median survival ([6]; 25 mg/kg/day s.c., max 21 days, control group 16 days): 20 days | signs of disease (bioluminescence imaging) ([6]; 50 and 100 mg/kg/day s.c. from day 2, twelve days post-injection): only minimal signs of disease | response (survival curves) ([6]; lymphoma with in vitro resistance and overexpression of Gli3, 100 mg/kg/day): only minimal response | response in vivo ([6]; two additional lymphoma cells (1 plasmoblastoma and 1 B-cell lymphoma), similar conditions): responsive in vivo | infiltration of the spleen [7, 8]: markedly decreased | lymphoma mass in lymph nodes and other organs [7, 8]: reduced lymphoma mass | PARP staining of spleen ([7]; after 3 days of treatment): apoptosis induction | histopathology of spleens (H&E) ([7]; after 3 days of treatment): reduction of lymphoma cells in the spleen | Ki67 staining of spleen ([7]; after 3 days of treatment, compared to vehicle group): strong decrease of high proliferative cells | decrease of spleen weight ([7]; three-day treatment, compared to vehicle control group): ~50%
